Reference: patent US9670212B2, “Inhibitors of PI3K-delta and methods of their use and manufacture” (Exelixis, Inc., priority 2010, dated 2017)

Molecular target: PI3K delta (Homo sapiens (Human), UniProt O00329)
Experiment: Luciferase-coupled chemiluminescence kinase assay (KinaseGlo, ATP consumption)
Assay type: biochemical
Procedure: Kinase activity and compound inhibition were investigated using one or more of the assay formats described below. The ATP concentrations used in the various assays were approximately equal to or less than the KM for each of the respective kinases. Dose-response experiments were performed using an intra-plate dilution scheme with 10 different inhibitor concentrations in a 384-well microtiter plate. […] Typically N should approximate unity. Curve fitting was performed using XLFit or ActivityBase. Luciferase-Coupled Chemiluminescence Assay Protocol
Kinase activity is measured as the percent of ATP consumed following the kinase reaction using luciferase-luciferin-coupled chemiluminescence. […] Kinase reactions were initiated by combining test compounds, kinase, and ATP in a 20 μL volume (6 μL volume for 1536-well plate). The reaction mixture was incubated at ambient temperature for 2 h. Following the kinase reaction, a 20 μL (or 3 μL for 1536-well plate) aliquot of KinaseGlo (Promega) was added and the chemiluminescence signal measured using an EnVision plate reader (Perkin Elmer).

Sequence of PI3K delta (O00329 whole entry): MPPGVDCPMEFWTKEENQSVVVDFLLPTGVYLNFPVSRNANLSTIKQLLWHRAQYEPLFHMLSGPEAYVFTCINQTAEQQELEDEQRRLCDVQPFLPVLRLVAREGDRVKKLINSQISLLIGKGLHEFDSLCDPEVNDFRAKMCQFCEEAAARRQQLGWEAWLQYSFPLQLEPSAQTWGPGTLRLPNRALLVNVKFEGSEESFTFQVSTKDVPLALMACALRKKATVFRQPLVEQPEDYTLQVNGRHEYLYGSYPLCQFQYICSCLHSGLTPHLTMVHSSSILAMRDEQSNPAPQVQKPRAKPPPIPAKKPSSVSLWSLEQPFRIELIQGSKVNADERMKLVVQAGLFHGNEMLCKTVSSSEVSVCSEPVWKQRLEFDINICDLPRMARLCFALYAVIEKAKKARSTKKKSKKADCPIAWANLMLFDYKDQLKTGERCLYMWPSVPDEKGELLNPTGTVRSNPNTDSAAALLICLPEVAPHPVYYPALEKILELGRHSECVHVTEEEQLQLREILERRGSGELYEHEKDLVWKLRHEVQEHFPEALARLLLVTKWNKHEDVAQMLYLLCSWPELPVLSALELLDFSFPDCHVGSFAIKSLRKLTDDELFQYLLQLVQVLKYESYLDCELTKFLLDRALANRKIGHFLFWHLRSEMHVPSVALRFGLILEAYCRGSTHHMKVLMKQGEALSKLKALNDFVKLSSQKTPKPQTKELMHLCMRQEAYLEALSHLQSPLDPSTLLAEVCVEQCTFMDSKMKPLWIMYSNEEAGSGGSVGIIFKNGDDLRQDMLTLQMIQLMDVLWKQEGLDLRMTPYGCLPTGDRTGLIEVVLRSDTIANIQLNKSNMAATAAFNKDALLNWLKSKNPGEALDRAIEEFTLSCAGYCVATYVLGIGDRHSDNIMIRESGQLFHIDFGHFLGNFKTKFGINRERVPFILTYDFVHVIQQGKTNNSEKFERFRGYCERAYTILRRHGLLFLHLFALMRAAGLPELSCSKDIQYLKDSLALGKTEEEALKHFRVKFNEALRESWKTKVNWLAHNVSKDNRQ
Sequence of PI3K delta (P27986 whole entry partner): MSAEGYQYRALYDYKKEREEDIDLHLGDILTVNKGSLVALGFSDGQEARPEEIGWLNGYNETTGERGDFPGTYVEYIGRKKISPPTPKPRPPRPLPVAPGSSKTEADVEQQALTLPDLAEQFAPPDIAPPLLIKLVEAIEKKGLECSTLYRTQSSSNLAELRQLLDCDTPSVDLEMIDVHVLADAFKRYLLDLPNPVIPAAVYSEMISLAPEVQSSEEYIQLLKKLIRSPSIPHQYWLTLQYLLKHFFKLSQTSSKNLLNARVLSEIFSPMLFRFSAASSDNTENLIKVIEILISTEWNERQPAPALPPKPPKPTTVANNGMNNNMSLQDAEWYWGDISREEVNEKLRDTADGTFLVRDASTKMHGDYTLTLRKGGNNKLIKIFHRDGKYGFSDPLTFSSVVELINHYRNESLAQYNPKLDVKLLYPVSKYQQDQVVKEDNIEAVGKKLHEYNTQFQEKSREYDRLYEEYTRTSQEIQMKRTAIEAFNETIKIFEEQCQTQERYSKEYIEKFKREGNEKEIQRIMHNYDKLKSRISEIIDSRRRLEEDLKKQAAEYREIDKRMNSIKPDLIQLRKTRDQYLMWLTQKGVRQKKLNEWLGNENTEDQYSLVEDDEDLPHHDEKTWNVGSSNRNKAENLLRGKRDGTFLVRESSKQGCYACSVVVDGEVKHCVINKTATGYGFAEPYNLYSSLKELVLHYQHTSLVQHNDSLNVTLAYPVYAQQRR

Row | Compound | IC50 [µM]
1 | Cc1cccc2cc(C(C)Nc3ncnc4[nH]cnc34)c(-c3ccccc3Cl)nc12 (stereo not drawn) [Compound 152, N-{1-[2-(2-chlorophenyl)-8-methylquinolin-3-yl]ethyl}-9H-purin-6-amine] | < 0.05
2 | Cc1cccc2cc(Cn3cnc4c(N)ncnc43)c(N(C)CC3CCCCN3C)nc12 (stereo not drawn) [Compound 3, 3-[(6-amino-9H-purin-9-yl)methyl]-N,8-dimethyl-N-[(1-methylpiperidin-2-yl)methyl]quinolin-2-amine] | < 0.05
3 | CC(=O)N1CCN(c2nc3c(C)cccc3cc2Cn2cnc3c(N)ncnc32)CC1 [Compound 166, 9-{[2-(4-acetylpiperazin-1-yl)-8-methylquinolin-3-yl]methyl}-9H-purin-6-amine] | 0.05 to 0.25
4 | Cc1cccc2cc(Cn3cnc4c(N)ncnc43)c(NC3CCN(C)CC3)nc12 [Compound 164, 3-[(6-amino-9H-purin-9-yl)methyl]-8-methyl-N-(1-methylpiperidin-4-yl)quinolin-2-amine] | 0.5 to 1.5
5 | Cc1ccccc1-n1c(Cn2cnc3c(N)ncnc32)nc2ccsc2c1=O [Compound 162, 2-[(6-amino-9H-purin-9-yl)methyl]-3-(2-methylphenyl)thieno[3,2-d]pyrimidin-4(3H)-one] | 0.5 to 1.5
6 | Cc1cccc2cc(CNC(=O)c3nccnc3N)c(-n3cnc4ccccc43)nc12 [Compound 112, 3-amino-N-{[2-(1H-benzimidazol-1-yl)-8-methylquinolin-3-yl]methyl}pyrazine-2-carboxamide] | 0.5 to 1.5
7 | Cc1cccc2cc(CNc3ncnc4[nH]cnc34)c(N3CCCCC3)nc12 [Compound 27, N-[(8-methyl-2-piperidin-1-ylquinolin-3-yl)methyl]-9H-purin-6-amine] | 0.05 to 0.25
8 | Cc1cccc2cc(Cn3cnc4c(N)ncnc43)c(N3CCCC3C)nc12 (stereo not drawn) [Compound 170, 9-{[8-methyl-2-(2-methylpyrrolidin-1-yl)quinolin-3-yl]methyl}-9H-purin-6-amine] | 0.05 to 0.25
9 | CNCCN(C)c1nc2c(C)cccc2cc1CN1CCOCC1 [Compound 21, N,N′-dimethyl-N-[8-methyl-3-(morpholin-4-ylmethyl)quinolin-2-yl]ethane-1,2-diamine] | 0.5 to 1.5
10 | COCCNc1nc2c(C)cccc2cc1Cn1cnc2c(N)ncnc21 [Compound 167, 3-[(6-amino-9H-purin-9-yl)methyl]-8-methyl-N-[2-(methyloyx)ethyl]quinolin-2-amine] | 0.5 to 1.5
11 | CCN1CCN(c2nc3c(C)cccc3cc2CNc2ncnc3[nH]cnc23)CC1 [Compound 144, N-{[2-(4-ethylpiperazin-1-yl)-8-methylquinolin-3-yl]methyl}-9H-purin-6-amine] | < 0.05
12 | CNCCN(C)c1nc2c(C)cccc2cc1CNc1ccc(OC)cc1 [Compound 20, N,N′-dimethyl-N-[8-methyl-3-({[4-(methyloxy)phenyl]amino}methyl)quinolin-2-yl]ethane-1,2-diamine] | 0.5 to 1.5
13 | CN(C)Cc1cccc(-c2cc3ccccc3nc2CNC(=O)c2nccnc2N)c1 [Compound 69, 3-amino-N-[(3-{3-[(dimethylamino)methyl]phenyl}quinolin-2-yl)methyl]pyrazine-2-carboxamide] | 0.25 to 0.5
14 | Cc1ccccc1-c1cc2ccccc2nc1CNC(=O)c1nccnc1N [Compound 142, 3-amino-N-{[3-(2-methylphenyl)quinolin-2-yl]methyl}pyrazine-2-carboxamide] | 0.5 to 1.5
15 | Cc1cccc2cc(CNC(=O)c3nccnc3N)c(NCCc3ccccn3)nc12 [Compound 96, 3-amino-N-({8-methyl-2-[(2-pyridin-2-ylethyl)amino]quinolin-3-yl}methyl)pyrazine-2-carboxamide] | 0.5 to 1.5
16 | Cc1cccc2cc(CNC(=O)c3nccnc3N)c(N(Cc3cccnc3)Cc3cccnc3)nc12 [Compound 46, 3-amino-N-({2-[bis(pyridin-3-ylmethyl)amino]-8-methylquinolin-3-yl}methyl)pyrazine-2-carboxamide] | 0.25 to 0.5
17 | Nc1nccnc1C(=O)NCc1nc2ccccc2cc1-c1cccc(CN2CCOCC2)c1 [Compound 72, 3-amino-N-({3-[3-(morpholin-4-ylmethyl)phenyl]quinolin-2-yl}methyl)pyrazine-2-carboxamide] | 0.5 to 1.5
18 | Cc1cccc2cc(CNC(=O)c3nccnc3N)c(N3CCCN(C(=O)Cn4nccn4)CC3)nc12 [Compound 61, 3-amino-N-({8-methyl-2-[4-(2H-1,2,3-triazol-2-ylacetyl)-1,4-diazepan-1-yl]quinolin-3-yl}methyl)pyrazine-2-carboxamide] | 0.5 to 1.5

The next lines start with the values.

Row | IC50 [µM] | Compound
19 | 0.25 to 0.5 | Cc1cccc2cc(CNC(=O)c3nccnc3N)c(N3CCCN(Cc4cccnc4)CC3)nc12 [Compound 64, 3-amino-N-({8-methyl-2-[4-(pyridin-3-ylmethyl)-1,4-diazepan-1-yl]quinolin-3-yl}methyl)pyrazine-2-carboxamide]
20 | 0.25 to 0.5 | Cc1cccc2cc(CNC(=O)c3nccnc3N)c(N(C)CCN(C)C(=O)c3ccccn3)nc12 [Compound 81, 3-amino-N-{[8-methyl-2-(methyl{2-[methyl(pyridin-2-ylcarbonyl)amino]ethyl}amino)quinolin-3-yl]methyl}pyrazine-2-carboxamide]
21 | < 0.05 | Cc1cccc2cc(CNC(=O)c3nccnc3N)c(N(C)CCN(C)C(=O)Cn3ccnn3)nc12 [Compound 100, 3-amino-N-{[8-methyl-2-(methyl{2-[methyl(1H-1,2,3-triazol-1-ylacetyl)amino]ethyl}amino)quinolin-3-yl]methyl}pyrazine-2-carboxamide]
22 | 0.05 to 0.25 | Cc1cccc2cc(CNC(=O)c3nccnc3N)c(N(C)C3CCN(C)C3)nc12 (stereo not drawn) [Compound 98, 3-amino-N-({8-methyl-2-[methyl(1-methylpyrrolidin-3-yl)amino]quinolin-3-yl}methyl)pyrazine-2-carboxamide]
23 | 0.5 to 1.5 | Cc1cccc2cc(CNC(=O)c3nccnc3N)c(N3CCCN(CC(=O)N(C)C)CC3)nc12 [Compound 66, 3-amino-N-[(2-{4-[2-(dimethylamino)-2-oxoethyl]-1,4-diazepan-1-yl}-8-methylquinolin-3-yl)methyl]pyrazine-2-carboxamide]
24 | 0.25 to 0.5 | Cc1cccc2cc(CNC(=O)c3nccnc3N)c(N(C)CCN(C)C(=O)c3cccnc3)nc12 [Compound 80, 3-amino-N-{[8-methyl-2-(methyl{2-[methyl(pyridin-3-ylcarbonyl)amino]ethyl}amino)quinolin-3-yl]methyl}pyrazine-2-carboxamide]
25 | < 0.05 | Cc1cccc2cc(CNC(=O)c3nccnc3N)c(N(C)CC3CCCN(C)C3)nc12 (stereo not drawn) [Compound 30, 3-amino-N-[(8-methyl-2-{methyl[(1-methylpiperidin-3-yl)methyl]amino}quinolin-3-yl)methyl]pyrazine-2-carboxamide]
26 | < 0.05 | Cc1cccc2cc(CNC(=O)c3nccnc3N)c(N(C)CCN(C)CC(=O)N(C)C)nc12 [Compound 89, 3-amino-N-({2-[(2-{[2-(dimethylamino)-2-oxoethyl](methyl)amino}ethyl)(methyl)amino]-8-methylquinolin-3-yl}methyl)pyrazine-2-carboxamide]
27 | 0.05 to 0.25 | Cc1cccc2cc(CNC(=O)c3nccnc3N)c(N(C)CCN(C)S(C)(=O)=O)nc12 [Compound 101, 3-amino-N-{[8-methyl-2-(methyl{2-[methyl(methylsulfonyl)amino]ethyl}amino)quinolin-3-yl]methyl}pyrazine-2-carboxamide]
